Experimental data reported in article PMC7613998, “Development of selective inhibitors of phosphatidylinositol 3-kinase C2α” (Nature Chemical Biology, 2022).

Key:
Test in all cases: biochemical
Parameters in all cases: SelectScreen Z'-LYTE purified kinase panel, per cent inhibition, mean of two points
PAK2 (PAK65) = PAK2 (PAK65) (Homo sapiens, UniProt Q13177); conditions: (μM)=Km app
SYK = SYK (Homo sapiens, UniProt P43405); conditions: (μM)=Km app
PDK1 = target: T1, PDK1 (Homo sapiens, UniProt O15530); conditions: (μM)=100
T1 construct: gene PDPK1
T1 sequence (O15530 1-556): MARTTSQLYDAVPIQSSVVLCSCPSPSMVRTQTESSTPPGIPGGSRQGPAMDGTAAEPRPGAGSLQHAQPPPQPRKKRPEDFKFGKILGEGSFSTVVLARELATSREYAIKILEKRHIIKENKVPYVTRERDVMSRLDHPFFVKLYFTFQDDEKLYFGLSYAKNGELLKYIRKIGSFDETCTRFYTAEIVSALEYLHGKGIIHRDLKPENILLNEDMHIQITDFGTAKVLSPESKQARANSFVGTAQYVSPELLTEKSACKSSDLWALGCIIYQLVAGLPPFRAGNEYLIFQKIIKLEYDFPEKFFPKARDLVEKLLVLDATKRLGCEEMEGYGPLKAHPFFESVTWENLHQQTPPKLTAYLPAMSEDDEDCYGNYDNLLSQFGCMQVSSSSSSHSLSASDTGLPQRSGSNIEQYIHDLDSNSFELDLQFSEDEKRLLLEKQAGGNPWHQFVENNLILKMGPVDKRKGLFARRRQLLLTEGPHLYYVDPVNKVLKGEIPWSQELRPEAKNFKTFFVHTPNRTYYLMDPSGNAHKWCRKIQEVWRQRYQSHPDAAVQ

ABL1 T315I = ABL1 T315I (Homo sapiens, UniProt P00519, T315I); conditions: (μM)=Km app
PTK2 (FAK) = PTK2 (FAK) (Homo sapiens, UniProt Q05397); conditions: (μM)=Km app
MAPKAPK2 = MAPKAPK2 (Homo sapiens, UniProt P49137); conditions: (μM)=Km app
FGFR3 = FGFR3 (Homo sapiens, UniProt P22607); conditions: (μM)=Km app
JAK2 JH1 JH2 = target: T2, JAK2 JH1 JH2 (Homo sapiens, UniProt O60674); conditions: (μM)=Km app
T2 construct: JH1 JH2

MAPK14 (p38 alpha) = MAPK14 (p38 alpha) (Homo sapiens, UniProt Q16539); conditions: (μM)=100
PRKCE (PKC epsilon) = target: T3, PRKCE (PKC epsilon) (Homo sapiens, UniProt Q02156); conditions: (μM)=Km app
T3 sequence (Q02156 1-737): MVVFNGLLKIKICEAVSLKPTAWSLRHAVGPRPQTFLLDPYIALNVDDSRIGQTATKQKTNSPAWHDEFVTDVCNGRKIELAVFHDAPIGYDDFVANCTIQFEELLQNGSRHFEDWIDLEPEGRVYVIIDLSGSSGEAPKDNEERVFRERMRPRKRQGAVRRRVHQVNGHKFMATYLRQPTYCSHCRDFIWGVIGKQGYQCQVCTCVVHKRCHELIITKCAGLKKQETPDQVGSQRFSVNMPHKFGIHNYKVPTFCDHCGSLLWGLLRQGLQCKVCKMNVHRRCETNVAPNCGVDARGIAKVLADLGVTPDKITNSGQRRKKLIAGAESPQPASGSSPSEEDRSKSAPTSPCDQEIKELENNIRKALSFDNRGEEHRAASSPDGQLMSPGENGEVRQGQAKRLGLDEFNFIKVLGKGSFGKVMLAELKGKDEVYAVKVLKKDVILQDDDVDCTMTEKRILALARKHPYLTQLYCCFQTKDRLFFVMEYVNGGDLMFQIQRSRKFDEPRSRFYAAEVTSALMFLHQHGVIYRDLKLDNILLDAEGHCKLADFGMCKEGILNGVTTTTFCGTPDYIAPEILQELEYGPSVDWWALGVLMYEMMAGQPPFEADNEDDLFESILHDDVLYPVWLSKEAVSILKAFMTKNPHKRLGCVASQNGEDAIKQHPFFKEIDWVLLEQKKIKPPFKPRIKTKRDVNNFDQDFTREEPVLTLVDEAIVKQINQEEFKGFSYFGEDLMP

KDR (VEGFR2) = KDR (VEGFR2) (Homo sapiens, UniProt P35968); conditions: (μM)=Km app
AKT1 (PKB alpha) = AKT1 (PKB alpha) (Homo sapiens, UniProt P31749); conditions: (μM)=Km app
AKT1 (PKB alpha), sequence (P31749 whole entry): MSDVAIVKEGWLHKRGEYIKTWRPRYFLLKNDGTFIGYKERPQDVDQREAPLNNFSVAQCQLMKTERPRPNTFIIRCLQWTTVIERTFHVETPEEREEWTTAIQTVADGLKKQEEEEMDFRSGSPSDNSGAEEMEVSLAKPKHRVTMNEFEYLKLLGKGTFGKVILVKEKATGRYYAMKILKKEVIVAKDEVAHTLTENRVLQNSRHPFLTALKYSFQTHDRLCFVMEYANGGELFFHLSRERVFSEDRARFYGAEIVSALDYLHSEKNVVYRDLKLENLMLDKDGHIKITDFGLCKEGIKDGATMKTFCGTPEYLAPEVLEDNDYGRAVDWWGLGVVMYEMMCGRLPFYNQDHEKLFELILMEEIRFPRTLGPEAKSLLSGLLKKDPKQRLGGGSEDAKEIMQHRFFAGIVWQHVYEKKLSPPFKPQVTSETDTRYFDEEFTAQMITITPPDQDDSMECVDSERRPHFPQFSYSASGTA

MAPKAPK2, sequence (P49137 whole entry): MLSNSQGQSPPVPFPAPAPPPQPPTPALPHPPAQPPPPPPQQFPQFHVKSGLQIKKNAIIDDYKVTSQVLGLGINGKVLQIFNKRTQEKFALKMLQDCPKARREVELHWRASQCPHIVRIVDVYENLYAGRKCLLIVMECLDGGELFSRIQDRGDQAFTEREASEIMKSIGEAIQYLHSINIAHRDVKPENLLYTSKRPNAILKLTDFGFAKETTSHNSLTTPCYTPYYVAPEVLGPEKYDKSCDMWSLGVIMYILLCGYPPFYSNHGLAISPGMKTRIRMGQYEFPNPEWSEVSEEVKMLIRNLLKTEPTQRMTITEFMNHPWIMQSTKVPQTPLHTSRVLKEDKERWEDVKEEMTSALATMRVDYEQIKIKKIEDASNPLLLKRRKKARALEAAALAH
KDR (VEGFR2), sequence (P35968 whole entry): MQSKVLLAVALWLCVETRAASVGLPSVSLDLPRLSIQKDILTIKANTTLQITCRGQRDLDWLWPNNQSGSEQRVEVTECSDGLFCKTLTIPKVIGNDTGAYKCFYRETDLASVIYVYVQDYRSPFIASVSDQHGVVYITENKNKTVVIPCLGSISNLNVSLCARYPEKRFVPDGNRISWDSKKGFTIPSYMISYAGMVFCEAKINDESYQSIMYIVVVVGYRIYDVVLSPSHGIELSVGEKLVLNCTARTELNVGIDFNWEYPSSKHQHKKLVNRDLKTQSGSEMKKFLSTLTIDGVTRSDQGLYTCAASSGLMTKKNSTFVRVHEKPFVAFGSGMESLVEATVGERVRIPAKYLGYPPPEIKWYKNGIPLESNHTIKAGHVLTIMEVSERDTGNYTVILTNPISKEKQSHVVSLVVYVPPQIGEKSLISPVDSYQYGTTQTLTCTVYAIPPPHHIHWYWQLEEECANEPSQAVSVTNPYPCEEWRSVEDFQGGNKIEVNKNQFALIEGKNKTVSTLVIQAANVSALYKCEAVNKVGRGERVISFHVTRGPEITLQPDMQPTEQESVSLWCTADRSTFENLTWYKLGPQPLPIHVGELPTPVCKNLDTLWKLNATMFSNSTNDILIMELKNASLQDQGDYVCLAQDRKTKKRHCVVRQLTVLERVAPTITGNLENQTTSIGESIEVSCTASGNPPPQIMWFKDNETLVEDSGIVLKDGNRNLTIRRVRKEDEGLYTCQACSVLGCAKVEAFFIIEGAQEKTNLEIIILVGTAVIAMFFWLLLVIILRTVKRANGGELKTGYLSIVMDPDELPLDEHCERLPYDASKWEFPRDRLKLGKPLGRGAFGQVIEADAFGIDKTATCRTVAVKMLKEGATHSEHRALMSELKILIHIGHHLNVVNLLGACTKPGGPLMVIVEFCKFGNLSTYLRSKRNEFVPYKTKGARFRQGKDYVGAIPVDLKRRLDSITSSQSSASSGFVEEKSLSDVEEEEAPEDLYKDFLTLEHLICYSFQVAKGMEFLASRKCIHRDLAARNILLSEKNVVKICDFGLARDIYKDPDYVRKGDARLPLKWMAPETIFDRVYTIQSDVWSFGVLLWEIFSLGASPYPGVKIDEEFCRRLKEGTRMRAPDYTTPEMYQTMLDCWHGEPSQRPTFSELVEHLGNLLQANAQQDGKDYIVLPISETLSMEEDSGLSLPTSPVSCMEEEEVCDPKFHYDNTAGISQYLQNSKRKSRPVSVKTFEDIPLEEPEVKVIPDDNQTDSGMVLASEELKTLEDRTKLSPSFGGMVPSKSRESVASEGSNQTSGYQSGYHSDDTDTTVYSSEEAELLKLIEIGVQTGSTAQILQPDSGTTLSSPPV
FGFR3, sequence (P22607 whole entry): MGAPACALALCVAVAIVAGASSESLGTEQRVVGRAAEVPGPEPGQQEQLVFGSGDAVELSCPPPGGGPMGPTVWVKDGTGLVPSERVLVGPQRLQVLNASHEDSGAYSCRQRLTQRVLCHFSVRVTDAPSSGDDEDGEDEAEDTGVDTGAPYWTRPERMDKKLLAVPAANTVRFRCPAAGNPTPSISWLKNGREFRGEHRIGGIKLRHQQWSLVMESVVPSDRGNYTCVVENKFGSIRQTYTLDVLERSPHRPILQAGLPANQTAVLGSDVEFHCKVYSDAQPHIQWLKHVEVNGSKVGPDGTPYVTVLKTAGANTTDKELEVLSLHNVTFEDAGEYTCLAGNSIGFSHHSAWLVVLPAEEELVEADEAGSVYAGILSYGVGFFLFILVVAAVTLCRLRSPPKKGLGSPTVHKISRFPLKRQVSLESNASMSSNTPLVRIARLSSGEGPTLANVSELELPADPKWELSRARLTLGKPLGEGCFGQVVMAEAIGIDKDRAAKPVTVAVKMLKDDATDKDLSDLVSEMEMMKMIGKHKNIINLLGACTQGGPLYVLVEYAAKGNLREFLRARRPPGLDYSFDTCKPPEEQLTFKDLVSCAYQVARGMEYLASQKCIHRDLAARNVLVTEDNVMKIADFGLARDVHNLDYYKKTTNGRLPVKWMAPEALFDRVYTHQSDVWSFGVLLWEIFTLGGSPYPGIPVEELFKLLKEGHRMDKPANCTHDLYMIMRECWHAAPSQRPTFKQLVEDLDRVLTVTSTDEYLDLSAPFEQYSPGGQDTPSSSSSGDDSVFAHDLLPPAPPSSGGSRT
PAK2 (PAK65), sequence (Q13177 whole entry): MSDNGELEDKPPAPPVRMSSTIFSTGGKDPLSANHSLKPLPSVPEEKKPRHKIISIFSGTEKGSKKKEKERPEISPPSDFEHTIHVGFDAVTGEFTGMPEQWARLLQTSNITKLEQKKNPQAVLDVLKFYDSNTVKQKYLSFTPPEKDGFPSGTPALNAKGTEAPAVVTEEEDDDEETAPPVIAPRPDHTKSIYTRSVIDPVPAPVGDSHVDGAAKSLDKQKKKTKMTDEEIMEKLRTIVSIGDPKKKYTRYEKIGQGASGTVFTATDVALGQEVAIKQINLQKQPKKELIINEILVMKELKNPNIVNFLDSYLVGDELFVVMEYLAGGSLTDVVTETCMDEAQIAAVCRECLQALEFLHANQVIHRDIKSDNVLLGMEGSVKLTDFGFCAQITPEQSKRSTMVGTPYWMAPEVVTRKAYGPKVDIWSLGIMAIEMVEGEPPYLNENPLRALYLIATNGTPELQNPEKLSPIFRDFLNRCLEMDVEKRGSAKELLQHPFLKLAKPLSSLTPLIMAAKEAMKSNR
PTK2 (FAK), sequence (Q05397 whole entry): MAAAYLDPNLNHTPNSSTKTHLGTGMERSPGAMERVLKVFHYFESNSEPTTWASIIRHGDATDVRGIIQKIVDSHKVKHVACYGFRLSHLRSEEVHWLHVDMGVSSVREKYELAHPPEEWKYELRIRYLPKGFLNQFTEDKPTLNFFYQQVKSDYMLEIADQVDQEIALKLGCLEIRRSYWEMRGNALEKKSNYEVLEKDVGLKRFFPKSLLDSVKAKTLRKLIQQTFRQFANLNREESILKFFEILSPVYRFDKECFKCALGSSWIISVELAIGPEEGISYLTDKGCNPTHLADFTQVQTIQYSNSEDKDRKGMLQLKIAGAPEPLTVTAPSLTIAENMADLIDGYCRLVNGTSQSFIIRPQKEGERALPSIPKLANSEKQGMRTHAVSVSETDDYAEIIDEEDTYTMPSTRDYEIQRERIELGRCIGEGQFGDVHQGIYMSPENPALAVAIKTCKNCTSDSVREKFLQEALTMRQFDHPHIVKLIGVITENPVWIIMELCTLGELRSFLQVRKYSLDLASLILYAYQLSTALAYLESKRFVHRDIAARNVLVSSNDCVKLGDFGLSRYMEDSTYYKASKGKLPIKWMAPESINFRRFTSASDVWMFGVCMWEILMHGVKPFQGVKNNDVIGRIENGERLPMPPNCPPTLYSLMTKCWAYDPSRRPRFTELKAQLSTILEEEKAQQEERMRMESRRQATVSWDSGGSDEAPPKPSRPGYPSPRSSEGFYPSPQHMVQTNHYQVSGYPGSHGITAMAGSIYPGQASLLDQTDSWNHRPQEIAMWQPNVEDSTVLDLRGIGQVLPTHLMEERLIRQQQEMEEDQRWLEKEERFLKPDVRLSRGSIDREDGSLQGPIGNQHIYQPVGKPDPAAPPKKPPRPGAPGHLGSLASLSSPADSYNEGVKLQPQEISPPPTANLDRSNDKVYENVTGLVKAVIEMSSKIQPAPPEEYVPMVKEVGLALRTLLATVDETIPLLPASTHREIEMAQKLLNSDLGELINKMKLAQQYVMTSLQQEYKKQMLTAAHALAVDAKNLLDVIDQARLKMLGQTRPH
MAPK14 (p38 alpha), sequence (Q16539 whole entry): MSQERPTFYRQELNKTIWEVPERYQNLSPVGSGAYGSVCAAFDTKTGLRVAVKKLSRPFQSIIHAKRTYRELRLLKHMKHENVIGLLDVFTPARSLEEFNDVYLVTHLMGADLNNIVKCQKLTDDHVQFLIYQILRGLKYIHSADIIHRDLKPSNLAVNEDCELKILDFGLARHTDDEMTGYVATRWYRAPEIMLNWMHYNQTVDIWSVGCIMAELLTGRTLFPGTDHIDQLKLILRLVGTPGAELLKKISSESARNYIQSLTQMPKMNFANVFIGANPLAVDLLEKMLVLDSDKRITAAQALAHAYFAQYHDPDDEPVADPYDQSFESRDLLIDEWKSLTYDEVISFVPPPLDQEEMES

SMILES	inhibition at 1 µM (PAK2 (PAK65))	inhibition at 3 µM (PAK2 (PAK65))	inhibition at 10 µM (PAK2 (PAK65))	inhibition at 1 µM (SYK)	inhibition at 3 µM (SYK)	inhibition at 10 µM (SYK)	inhibition at 1 µM (PDK1)	inhibition at 3 µM (PDK1)	inhibition at 10 µM (PDK1)	inhibition at 1 µM (ABL1 T315I)	inhibition at 3 µM (ABL1 T315I)	inhibition at 10 µM (ABL1 T315I)	inhibition at 1 µM (PTK2 (FAK))	inhibition at 3 µM (PTK2 (FAK))	inhibition at 10 µM (PTK2 (FAK))	inhibition at 1 µM (MAPKAPK2)	inhibition at 3 µM (MAPKAPK2)	inhibition at 10 µM (MAPKAPK2)	inhibition at 1 µM (FGFR3)	inhibition at 3 µM (FGFR3)	also measured
O=C(CSc1nc2nccnc2c(=O)n1CCc1ccccc1)Nc1nccs1 [compound 1, PITCOIN1]	2.87%	-3.37%	3.3%	2.84%	2.83%	-0.59%	8.23%	7.27%	6.69%	-2.1%	-3.21%	-2.35%	4.94%	3.7%	2.3%	4.27%	5.91%	1.1%	7.72%	-7.09%	inhibition at 10 µM (FGFR3): -15.3%; inhibition at 1 µM (JAK2 JH1 JH2): -0.97%; inhibition at 3 µM (JAK2 JH1 JH2): -0.0652%; inhibition at 10 µM (JAK2 JH1 JH2): -0.468%; inhibition at 1 µM (MAPK14 (p38 alpha)): -3.25%; inhibition at 3 µM (MAPK14 (p38 alpha)): -1.99%; inhibition at 10 µM (MAPK14 (p38 alpha)): -0.632%; inhibition at 1 µM (PRKCE (PKC epsilon)): -11.8%; inhibition at 3 µM (PRKCE (PKC epsilon)): 23.9%; inhibition at 10 µM (PRKCE (PKC epsilon)): -9.1%; inhibition at 1 µM (KDR (VEGFR2)): 8.19%; inhibition at 3 µM (KDR (VEGFR2)): 4.57%; inhibition at 10 µM (KDR (VEGFR2)): -0.425%; inhibition at 1 µM (AKT1 (PKB alpha)): 1.93%; inhibition at 3 µM (AKT1 (PKB alpha)): 0.317%; inhibition at 10 µM (AKT1 (PKB alpha)): 0.625%
CS(=O)(=O)Nc1cccc(-c2csc(NC(=O)CSc3nc4nccnc4c(=O)n3CCc3ccccc3)n2)c1 [compound 3, PITCOIN3]	4.79%	5.93%	0.538%	0.0373%	3.51%	6.6%	9.47%	5.91%	10.5%	1.95%	3.78%	2.19%	9.45%	8.02%	6.38%	0.509%	3.08%	6.37%	-8.51%	0.972%	inhibition at 10 µM (FGFR3): 8.3%; inhibition at 1 µM (JAK2 JH1 JH2): 0.755%; inhibition at 3 µM (JAK2 JH1 JH2): 0.839%; inhibition at 10 µM (JAK2 JH1 JH2): 1.69%; inhibition at 1 µM (MAPK14 (p38 alpha)): 1.55%; inhibition at 3 µM (MAPK14 (p38 alpha)): 6.76%; inhibition at 10 µM (MAPK14 (p38 alpha)): 2.67%; inhibition at 1 µM (PRKCE (PKC epsilon)): -17.8%; inhibition at 3 µM (PRKCE (PKC epsilon)): -1.73%; inhibition at 10 µM (PRKCE (PKC epsilon)): -22.6%; inhibition at 1 µM (KDR (VEGFR2)): 0.654%; inhibition at 3 µM (KDR (VEGFR2)): 10.7%; inhibition at 10 µM (KDR (VEGFR2)): 9.78%; inhibition at 1 µM (AKT1 (PKB alpha)): -1.18%; inhibition at 3 µM (AKT1 (PKB alpha)): 7.49%; inhibition at 10 µM (AKT1 (PKB alpha)): 3.66%
